From patent publication US10708263B2, “Salts and pharmaceutical compositions thereof for the treatment of inflammatory disorders” (Galapagos N.V., priority 2014, dated 2020)
Values after ≈ are worked out from the molar mass of the structure shown. Where a name gives a salt, the structure may show the parent alone. Blank lines part the entries; values can stand above or below the compound they belong to.

Tests used:
[1] = Salt stability and hygroscopicity evaluation; assay type: physicochemical; settings: for hygroscopicity of the salt: salt from Protocol 4; for stability of the salt: salt from Protocol 4, XRPD analysis
[2] = Thermodynamic aqueous solubility by HPLC; assay type: physicochemical; settings: salt from Protocol 4
[3] = system: MMP13 levels in human chondrosarcoma cell line SW1353; experiment: cells; settings: SW1353, 48 h, read-out: OSM/IL-1β signaling EC50
Protocol: The cells are seeded in 96 well plates at 15,000 cells/well in a volume of 120 μL DMEM (Invitrogen) containing 10% (v/v) FBS and 1% penicillin/streptomycin (InVitrogen) incubated at 37° C./5% CO2. Cells are preincubated with 15 μL of compound in M199 medium with 2% DMSO 1 hr before triggering with 15 μL OSM and IL-1P to reach 25 ng/mL OSM and 1 ng/mL IL-1β, and MMP13 levels are measured in conditioned medium 48 h after triggering. MMP13 activity is measured using an antibody capture activity assay. For this purpose, 384 well plates (NUNC, 460518, MaxiSorb black) are coated with 35 μL of a 1.5 μg/mL anti-human MMP13 antibody (R&D Systems, MAB511) solution for 24 hrs at 4° C. After washing the wells 2 times with PBS+0.05% Tween, the remaining binding sites are blocked with 100 μL 5% non-fat dry milk (Santa Cruz, sc-2325, Blotto) in PBS for 24 hr at 4° C. […] After incubation for 24 hrs at 37° C. fluorescence of the converted substrate is measured in a Perkin Elmer Wallac EnVision 2102 Multilabel Reader (wavelength excitation: 320 nm, wavelength emission: 405 nm). Percentage inhibition=((fluorescence determined in the presence of vehicle−fluorescence determined for sample with test compound present) divided by (fluorescence determined in the presence of vehicle−fluorescence determined for sample without trigger))*100.

[4] = Solubility study in different solvents; assay type: physicochemical
Protocol: The supersaturated solution is then filtered and the concentration of product in the filtrate is determined using UV-spectrometry.
In water, the influence of the pH is adjusted to pH 2, pH 7, and pH 9. HCl and NaOH are used to adjust the pH.

[5] = Dog bioavailability study; assay type: in vivo, beagle dogs
Protocol: The dogs are not fasted before dosing, and have free access to water. Every day of the treatment, a half food ration is provided after the T0 blood sampling, 8 to 17 min before treatment, and the second half ration is given just after dosing or 1 h after treatment for period 2. A 3 days washout period is ensured between treatments.
The capsule composition is described in Table XX below.
The capsules are administered orally with water (5-10 mL), to provide good oesophageal transit. Each animal is checked at least once daily.
Blood is collected from the jugular vein into lithium heparinised tubes at T0 (before food administration) and then at 1 h, 2 h, 4 h, 6 h, 8 h, 10 h, and 24 h post treatment.
Plasma is then obtained from blood by centrifugation (2500 g for 10 min at 4° C.), and stored at −20° C. until analysis.
After vortex mixing and centrifugation at 4° C., the supernatants are diluted with a 0.5 volume of HPLC grade water in a midi-eppendorf 96-well plate. The plate is sealed and shaken to ensure sample homogeneity prior to analysis.
Pharmacokinetic analysis is performed using WinNonlin™ software version 5.3, using concentrations from individual animals. Non-compartmental analysis is applied to determine the PK parameters (Cmax, Tmax, AUC0-last, t1/2, etc. . . . )
Concentrations below the limit of detection are set to zero for descriptive statistics and PK parameter calculations.

[6] = oral capsules, on average and at the 2 capsule strengths, FIG. 10

Structure (SMILES): O=C(Nc1nc2cccc(-c3ccc(CN4CCS(=O)(=O)CC4)cc3)n2n1)C1CC1.O=C(O)/C=C\C(=O)O [Compound 1 maleic acid salt]
stability of the salt [1]: stable
solubility ([2]; water): 400 µg/mL

Structure (SMILES): O=C(O)/C=C\C(=O)O [Compound 1 maleic acid salt]
hygroscopicity of the salt [1]: non-hygroscopic

Structure (SMILES): O=C(Nc1nc2cccc(-c3ccc(CN4CCS(=O)(=O)CC4)cc3)n2n1)C1CC1 [Compound 1, cyclopropanecarboxylic acid {5-[4-(1,1-dioxo-thiomorpholin-4-ylmethyl)-phenyl]-[1,2,4]triazolo[1,5-a]pyridin-2-yl}-amide]
EC50 [3]: 2240 nM
solubility ([4]; 0.01M HCl + 2.0% Tweet 80 (so in the source); presumably Tween 80), pH 2, aqueous with cosolvent or surfactant or cyclodextrin, thermodynamic from solid, 0.01M HCl + 2.0% Tweet 80, 20° C., read-out: Solubility): 313 µg/mL
solubility ([4]; aqueous with cosolvent or surfactant or cyclodextrin, thermodynamic from solid, Acetonitrile/water (1/1), 20° C., read-out: Solubility): 1570 µg/mL (≈ 3690 µM)
solubility ([4]; aqueous with cosolvent or surfactant or cyclodextrin, thermodynamic from solid, HP-β-CD 40% pH 2, 20° C., read-out: Solubility): 577 µg/mL (≈ 1360 µM)
solubility ([4]; aqueous with cosolvent or surfactant or cyclodextrin, thermodynamic from solid, HP-β-CD 40% pH 4, 20° C., read-out: Solubility): 520 µg/mL (≈ 1220 µM)
solubility ([4]; aqueous with cosolvent or surfactant or cyclodextrin, thermodynamic from solid, Water/ethanol 1/1, 20° C., read-out: Solubility): 327 µg/mL (≈ 768 µM)
solubility ([4]; organic solvent or mixture, thermodynamic from solid, Acetone, 20° C., read-out: Solubility): 420 µg/mL (≈ 987 µM)
solubility ([4]; organic solvent or mixture, thermodynamic from solid, Acetonitrile, 20° C., read-out: Solubility): 605 µg/mL (≈ 1420 µM)
solubility ([4]; organic solvent or mixture, thermodynamic from solid, Acetonitrile/water (4/1), 20° C., read-out: Solubility): 3110 µg/mL (≈ 7310 µM)
solubility ([4]; organic solvent or mixture, thermodynamic from solid, Dichloromethane, 20° C., read-out: Solubility): 5660 µg/mL (≈ 13300 µM)
solubility ([4]; organic solvent or mixture, thermodynamic from solid, Ethanol, 20° C., read-out: Solubility): 151 µg/mL (≈ 355 µM)
solubility ([4]; organic solvent or mixture, thermodynamic from solid, Methanol, 20° C., read-out: Solubility): 432 µg/mL (≈ 1020 µM)
solubility ([4]; organic solvent or mixture, thermodynamic from solid, PEG400, 20° C., read-out: Solubility): 1530 µg/mL (≈ 3600 µM)
solubility ([4]; organic solvent or mixture, thermodynamic from solid, Propanol, 20° C., read-out: Solubility): 134 µg/mL (≈ 315 µM)
solubility ([4]; organic solvent or mixture, thermodynamic from solid, Propylene glycol, 20° C., read-out: Solubility): 464 µg/mL (≈ 1090 µM)
solubility ([4]; organic solvent or mixture, thermodynamic from solid, Tetrahydrofuran, 20° C., read-out: Solubility): 740 µg/mL (≈ 1740 µM)
solubility ([4]; organic solvent or mixture, thermodynamic from solid, t-butyl methyl ether, 20° C., read-out: Solubility): < 2.39 µg/mL
solubility ([4]; pH 2, simulated gastric fluid, thermodynamic from solid, 0.01M HCl, 20° C., read-out: Solubility): 288 µg/mL (≈ 677 µM)
solubility ([4]; pH adjusted with HCl/NaOH, aqueous buffer, thermodynamic from solid, Water pH 2, 20° C., read-out: Solubility): 291 µg/mL (≈ 684 µM)
solubility ([4]; pH adjusted with HCl/NaOH, aqueous buffer, thermodynamic from solid, Water pH 7, 20° C., read-out: Solubility): 4.32 µg/mL (≈ 10.2 µM)
solubility ([4]; pH adjusted with HCl/NaOH, aqueous buffer, thermodynamic from solid, Water pH 9, 20° C., read-out: Solubility): 4.29 µg/mL (≈ 10.1 µM)
solubility ([4]; thermodynamic from solid, Water (purified), 20° C., read-out: Solubility): 3.84 µg/mL (≈ 9.02 µM)
half-life ([5]; male, beagle, plasma, 10 mg/kg, single oral administration, range over both forms and both capsule strengths): 4.43 to 8.96 h

Continued, values first:

hygroscopicity of the salt [1]: non-hygroscopic
stability of the salt [1]: stable
aqueous solubility [2]: 1900 µg/mL
Structure (SMILES): Cl.O=C(Nc1nc2cccc(-c3ccc(CN4CCS(=O)(=O)CC4)cc3)n2n1)C1CC1 [Compound 1 HCl salt]

solubility ([4]; 0.005M HCl, 20° C.): 3100 µg/mL
in vivo exposure compared with Compound 1 [5, 6]: improved exposure
rate of absorption compared with Compound 1 [5, 6]: more rapidly absorbed
Structure (SMILES): Cl.O.O.O.O=C(Nc1nc2cccc(-c3ccc(CN4CCS(=O)(=O)CC4)cc3)n2n1)C1CC1 [Compound 1.HCl.3H2O]
